One experiment has as its target T1, SARS-Cov-2 3CLpro (Severe acute respiratory syndrome coronavirus 2, UniProt P0DTD1).
T1 construct: 3CLpro and HRV3C was added using a Multidrop Combi
Description: biochemical. Particulars: 3CLpro, 30 mins preincubation, SAMDI-MS; read-out: SARS-Cov-2 IC50 (class).

In a further experiment the target is T2, HRV3C (Human rhinovirus 14, UniProt P03303).
T2 construct: 3CLpro and HRV3C was added using a Multidrop Combi
The experiment can be described thus: biochemical. Particulars: HRV3C, 30 mins preincubation, SAMDI-MS. Also on record: species or system HRV.

Experiment [1] has as its system human beta-coronavirus OC43. Description: OC43 coronavirus antiviral assay in HeLa cells (cytopathic effect, cell-titer-glo). The experiment is classed as cell-based. Particulars: Betacoronavirus 1, OC43, HeLa, 144 h, 6 days at 33° C.
Experiment [2] relates to SARS-CoV-2-GHB-03021/2020. The experiment is classed as cell-based. To be noted: read-out: VeroE6 + CP (EC50).
In experiment [3] the test system is B.1.1.7 lineage SARS-CoV-2. Description: microbe, parasite or virus in culture. Type of experiment: cell-based. To be noted: Severe acute respiratory syndrome coronavirus 2, 96 h, read-out: A549-dual_ACE2_TMPRSS2 (EC50).
The next experiment concerns the target T3, human cathepsin L (Homo sapiens, UniProt P07711).
T3 construct: purchased R&D Systems
Description: Cathepsin L assay (Z-FR-AMC fluorescence). To be noted: 10 pM human cathepsin L, 30 mins preincubation, Z-FR-AMC 2 μM. Type of experiment: biochemical. Summed up:
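IC50 values were taken from four-parameter fits of fluorescence read at 355/460 nm every 2 minutes for 30 minutes. The reaction started when 2 μM Z-FR-AMC was added. Before that, 10 pM human cathepsin L had been preincubated with inhibitor for 30 minutes.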

pEC50, pIC50: −log10 of the molar value. Like-named read-outs stand apart in the source and are kept apart here.

T2 sequence (P03303 1538-1719): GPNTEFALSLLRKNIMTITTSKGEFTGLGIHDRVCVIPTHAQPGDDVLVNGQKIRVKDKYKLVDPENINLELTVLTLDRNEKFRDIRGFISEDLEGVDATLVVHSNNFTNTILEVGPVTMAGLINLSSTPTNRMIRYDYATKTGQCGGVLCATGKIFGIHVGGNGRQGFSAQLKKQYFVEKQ
T3 sequence (P07711 114-333): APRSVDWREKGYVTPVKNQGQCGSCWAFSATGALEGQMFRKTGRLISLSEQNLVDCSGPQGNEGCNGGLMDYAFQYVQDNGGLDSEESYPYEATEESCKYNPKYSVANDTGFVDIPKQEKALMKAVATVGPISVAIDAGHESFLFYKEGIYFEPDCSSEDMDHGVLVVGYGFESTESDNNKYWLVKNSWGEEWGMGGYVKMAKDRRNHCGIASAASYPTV

With `CC(C)(C)[C@H](NC(=O)c1ccco1)C(=O)N1C[C@H]2[C@@H]([C@H]1C(=O)N[C@H](C#N)C[C@@H]1CCNC1=O)[C@H]1C=C[C@@H]2C1` [Example 19, (1S,3aR,4S,7R,7aS)-N-((S)-1-cyano-2-((S)-2-oxopyrrolidin-3-yl)ethyl)-2-((S)-2-(furan-2-carboxamido)-3,3-dimethylbutanoyl)-2,3,3a,4,7,7a-hexahydro-1H-4,7-methanoisoindole-1-carboxamide], the pIC50 is 6.70 to 7.70 on SARS-Cov-2 3CLpro, < 5.00 at HRV3C (read-out: HRV IC50 (bound)) and ≤ 5.00 against human cathepsin L. In addition, the values for the pEC50 in experiment [1] (read-out: EC50 (class)), in experiment [2] and in experiment [3] were > 7.00, 6.00 to 7.00 and 6.00 to 7.00, respectively.

As to `N#C[C@H](C[C@@H]1CCNC1=O)NC(=O)[C@@H]1[C@@H]2[C@H](CN1C(=O)c1cc3c(Cl)cc(Cl)cc3[nH]1)[C@@H]1C=C[C@H]2C1` [Compound 44, (1S,3aR,4S,7R,7aS)-N-((S)-1-cyano-2-((S)-2-oxopyrrolidin-3-yl)ethyl)-2-(4,6-dichloro-1H-indole-2-carbonyl)-2,3,3a,4,7,7a-hexahydro-1H-4,7-methanoisoindole-1-carboxamide], the pIC50 at SARS-Cov-2 3CLpro is 6.70 to 7.70; on HRV3C (read-out: HRV IC50 (bound)) it was < 5.00; at human cathepsin L it was ≤ 5.00. Besides, the pEC50 in experiment [1] (read-out: EC50 (class)) was 6.00 to 7.00; in experiment [2] it was 5.00 to 6.00; in experiment [3] it was 5.00 to 6.00.

Regarding `CC(C)(C)[C@H](OC1CC1)C(=O)N1C[C@H]2[C@@H]([C@H]1C(=O)N[C@H](C#N)C[C@@H]1CCNC1=O)[C@H]1C=C[C@@H]2C1` [Compound 54], the pIC50 is 5.70 to 6.70 at SARS-Cov-2 3CLpro, < 5.00 on HRV3C (read-out: HRV IC50 (bound)) and ≤ 5.00 against human cathepsin L. The pEC50 in experiment [1] (read-out: EC50 (bound)) is < 5.00; in experiment [2], 5.00 to 6.00; in experiment [3] ([…], numeric bounds given instead of class symbols), < 5.00.

On to `C=CC(C)(C)[C@H](NC(=O)C(F)(F)F)C(=O)N1C[C@H]2[C@@H]([C@H]1C(=O)N[C@H](C#N)C[C@@H]1CCNC1=O)[C@H]1C=C[C@@H]2C1` [Example 28, (1R,2S,3S,6R,7S)—N-[(1S)-1-cyano-2-[(3S)-2-oxopyrrolidin-3-yl]ethyl]-4-[(2S)-3,3-dimethyl-2-(2,2,2-trifluoroacetamido)pent-4-enoyl]-4-azatricyclo[5.2.1.0^{2,6}]dec-8-ene-3-carboxamide], for which the negative-log IC50 (pIC50) is > 7.70 on SARS-Cov-2 3CLpro, < 5.00 on HRV3C (read-out: HRV IC50 (bound)) and ≤ 5.00 on human cathepsin L. Besides, the pEC50 in experiment [1] (read-out: EC50 (class)), in experiment [2] and in experiment [3] was > 7.00 throughout.

As for `[2H][C@@H]1[C@H]([2H])[C@@H]2C[C@H]1[C@H]1[C@@H]2CN(C(=O)[C@@H](NC(=O)C(F)(F)F)C(C)(C)C)[C@@H]1C(=O)N[C@H](C#N)C[C@@H]1CCNC1=O` [Example 32, (1S,3aR,4R,5S,6R,7S,7aS)-N-((S)-1-cyano-2-((S)-2-oxopyrrolidin-3-yl)ethyl)-2-((S)-3,3-dimethyl-2-(2,2,2-trifluoroacetamido)butanoyl)octahydro-1H-4,7-methanoisoindole-5,6-d^2-1-carboxamide], the pIC50 at SARS-Cov-2 3CLpro is > 7.70; on HRV3C (read-out: HRV IC50 (bound)) it was < 5.00; against human cathepsin L, ≤ 5.00. The pEC50 in experiment [1] (read-out: EC50 (class)), in experiment [2] and in experiment [3] was > 7.00 each time.

As to `CC(C)(C)[C@H](NC(=O)C(F)(F)F)C(=O)N1C[C@@H]2[C@H]3C[C@@H]([C@@H]2[C@H]1C(=O)N[C@H](C#N)C[C@@H]1CCNC1=O)[C@H]1[C@@H]3C1(F)F` [Example 23, (1S,2S,3S,6R,7R,8R,10S)—N-[(1S)-1-cyano-2-[(3S)-2-oxopyrrolidin-3-yl]ethyl]-4-[(2S)-3,3-dimethyl-2-(2,2,2-trifluoroacetamido)butanoyl]-9,9-difluoro-4-azatetracyclo[5.3.1.0^{2,6}0.0^{8,10}]undecane-3-carboxamide], the figures for the pIC50 at SARS-Cov-2 3CLpro, on HRV3C (read-out: HRV IC50 (bound)) and on human cathepsin L were 6.70 to 7.70, < 5.00 and ≤ 5.00, respectively. For the same molecule, the pEC50 is 5.00 to 6.00 in experiment [1] (read-out: EC50 (class)), 6.00 to 7.00 in experiment [2] and 6.00 to 7.00 in experiment [3].

As for `N#C[C@H](C[C@@H]1CCNC1=O)NC(=O)[C@@H]1[C@@H]2[C@H](CN1C(=O)[C@@H](NC(=O)C(F)(F)F)C13CC(C1)C3)[C@@H]1C=C[C@H]2C1` [Example 27, (1R,2S,3S,6R,7S)-4-[(2S)-2-{bicyclo[1.1.1]pentan-1-yl}-2-(2,2,2-trifluoroacetamido)acetyl]-N-[(1S)-1-cyano-2-[(3S)-2-oxopyrrolidin-3-yl]ethyl]-4-azatricyclo[5.2.1.0^{2,6}]dec-8-ene-3-carboxamide], the figures for the pIC50 on SARS-Cov-2 3CLpro, at HRV3C (read-out: HRV IC50 (bound)) and against human cathepsin L were > 7.70, < 5.00 and ≤ 5.00, respectively. Moreover, the pEC50 in experiment [1] (read-out: EC50 (class)) was > 7.00; in experiment [2], > 7.00; in experiment [3] it was 6.00 to 7.00.

Consider `CC(C)(C)[C@H](NC(=O)C(F)(F)F)C(=O)N1C[C@@H]2[C@H]3C[C@H]([C@@H]4C[C@@H]43)[C@@H]2[C@H]1C(=O)N[C@H](C#N)C[C@@H]1CCNC1=O` [Example 2, (1R,2S,3S,6R,7S,8S,10R)—N-[(1S)-1-cyano-2-[(3S)-2-oxopyrrolidin-3-yl]ethyl]-4-[(2S)-3,3-dimethyl-2-(2,2,2-trifluoroacetamido)butanoyl]-4-azatetracyclo[5.3.1.0^{2,6}0.0^{8,10}]undecane-3-carboxamide], for which the pIC50 is 6.70 to 7.70 at SARS-Cov-2 3CLpro, < 5.00 at HRV3C (read-out: HRV IC50 (bound)) and ≤ 5.00 against human cathepsin L. For the same molecule, the pEC50 is 6.00 to 7.00 in experiment [1] (read-out: EC50 (class)), > 7.00 in experiment [2] and > 7.00 in experiment [3].

For the molecule `CC(C)(C)[C@H](OCC1CC1)C(=O)N1C[C@H]2[C@@H]([C@H]1C(=O)N[C@H](C#N)C[C@@H]1CCNC1=O)[C@H]1C=C[C@@H]2C1` [Compound 56], the results for the pIC50 on SARS-Cov-2 3CLpro, on HRV3C (read-out: HRV IC50 (bound)) and at human cathepsin L were 5.70 to 6.70, < 5.00 and ≤ 5.00, respectively. Besides, the pEC50 in experiment [1] (read-out: EC50 (bound)) is < 5.00; in experiment [2] it was 5.00 to 6.00; in experiment [3], 5.00 to 6.00.

In the case of `CC1(C(NC(=O)C(F)(F)F)C(=O)N2C[C@H]3[C@@H]([C@H]2C(=O)N[C@H](C#N)C[C@@H]2CCNC2=O)[C@H]2C=C[C@@H]3C2)CC1` (stereo partly drawn) [Example 24, (1R,2S,3S,6R,7S)—N-[(1S)-1-cyano-2-[(3S)-2-oxopyrrolidin-3-yl]ethyl]-4-[2-(1-methylcyclopropyl)-2-(2,2,2-trifluoroacetamido)acetyl]-4-azatricyclo[5.2.1.0^{2,6}]dec-8-ene-3-carboxamide], the pIC50 was > 7.70 on SARS-Cov-2 3CLpro, < 5.00 on HRV3C (read-out: HRV IC50 (bound)) and ≤ 5.00 at human cathepsin L. Besides, the figures for the pEC50 in experiment [1] (read-out: EC50 (class)), in experiment [2] and in experiment [3] were > 7.00, 6.00 to 7.00 and 6.00 to 7.00, respectively.

Turning to `Cc1nnc(N[C@H](C(=O)N2C[C@H]3[C@@H]([C@H]2C(=O)N[C@H](C#N)C[C@@H]2CCNC2=O)[C@H]2C=C[C@@H]3C2)C(C)(C)C)o1` [Compound 43, (1S,3aR,4S,7R,7aS)-N-((S)-1-cyano-2-((S)-2-oxopyrrolidin-3-yl)ethyl)-2-((S)-3,3-dimethyl-2-((5-methyl-1,3,4-oxadiazol-2-yl)amino)butanoyl)-2,3,3a,4,7,7a-hexahydro-1H-4,7-methanoisoindole-1-carboxamide], the results for the pIC50 at SARS-Cov-2 3CLpro, at HRV3C (read-out: HRV IC50 (bound)) and against human cathepsin L were > 7.70, < 5.00 and ≤ 5.00, respectively. In addition, the pEC50 in experiment [1] (read-out: EC50 (class)), in experiment [2] and in experiment [3] was 6.00 to 7.00 each time.

`O=C(NC1CC1)C(=O)C(C[C@@H]1CCNC1=O)NC(=O)[C@@H]1[C@@H]2[C@H](CN1C(=O)c1nc3c(Cl)ccc(Cl)c3[nH]1)[C@@H]1C=C[C@H]2C1` (stereo partly drawn) [Compound 45, (1S,3aR,4S,7R,7aS)—N-(4-(cyclopropylamino)-3,4-dioxo-1-((S)-2-oxopyrrolidin-3-yl)butan-2-yl)-2-(4,7-dichloro-1H-benzo[d]imidazole-2-carbonyl)-2,3,3a,4,7,7a-hexahydro-1H-4,7-methanoisoindole-1-carboxamide]: the results for the pIC50 at SARS-Cov-2 3CLpro, on HRV3C (read-out: HRV IC50 (class)) and against human cathepsin L were 6.70 to 7.70, 4.70 to 5.70 and ≤ 5.00, respectively. Further, the pEC50 in experiment [1] (read-out: EC50 (class)), in experiment [2] and in experiment [3] was 5.00 to 6.00 each time.

Take `N#C[C@H](C[C@@H]1CCNC1=O)NC(=O)[C@@H]1[C@@H]2[C@H](CN1C(=O)[C@@H]1C[C@]13CCOc1ccccc13)[C@@H]1C=C[C@H]2C1` (relative stereo) [Compound 55, (1S,3aR,4S,7R,7aS)-N-((S)-1-cyano-2-((S)-2-oxopyrrolidin-3-yl)ethyl)-2-((2′R*,4S*)-spiro[chromane-4,1′-cyclopropane]-2′-carbonyl)-2,3,3a,4,7,7a-hexahydro-1H-4,7-methanoisoindole-1-carboxamide]: the pIC50 at SARS-Cov-2 3CLpro is 6.70 to 7.70; on HRV3C (read-out: HRV IC50 (bound)), < 5.00; against human cathepsin L, ≤ 5.00. Also, the pEC50 in experiment [1] (read-out: EC50 (class)) was 5.00 to 6.00; in experiment [2] it was 6.00 to 7.00; in experiment [3], 6.00 to 7.00.
